According to US8846636B2, “Nucleoside analogues with quaternary carbon stereogenic centers and methods of use” (LCB Pharma Inc., priority 2008, dated 2014):

Experiments:
Format in all cases: cell-based
1A6 = experiment: MTT cell proliferation assay, 1A6; settings: 1A6 cell line (urinary bladder)
Method: (§1) The antiviral and antitumor activities of the compounds of the invention were evaluated by a cellular proliferation assay. The MTT [3-(4,5-dimethylthiazol-2-yl)-2,5-diphenyltetrazolium bromide] assay, first described by Mosmann (Mosmann T., “Rapid colorimetric assay for cellular growth and survival: application to proliferation and cytotoxicity assays,” J. Immunol. Methods 1983 Dec. 16; 65(1-2):55-63, and incorporated by reference in its entirety) is based on the ability of a mitochondrial dehydrogenase enzyme from viable cells to cleave the tetrazolium rings of the pale yellow MTT. The cleavage reaction form a dark blue formazan crystals which is largely impermeable to cell membranes and accumulation within healthy cells. Solubilisation of the cells by the addition of a detergent liberates and solubilizes the crystals. The number of surviving cells is directly proportional to the level of the formazan product created. The color can then be quantified using a simple colorimetric assay. The results can be read on a multiwell scanning spectrophotometer (ELISA reader).
(§2) In Tables 1 and 2, IC50 values are presented for various cell lines in micromolar units (μm), “Gemci” is Gemcitabine, and “5-FU” is 5-fluorouracil.

22Rv1 = experiment: MTT cell proliferation assay, 22Rv1; settings: 22Rv1 cell line (prostate)
Method: as §1, §2

786-O = experiment: MTT cell proliferation assay, 786-O; settings: 786-O cell line (kidney)
Method: as §1, §2

BxPC-3 = experiment: MTT cell proliferation assay, BxPC-3; settings: BxPC-3 cell line (pancreas)
Method: as §1, §2

Colo 829 = experiment: MTT cell proliferation assay, Colo 829; settings: Colo 829 cell line (skin)
Method: as §1, §2

DLD-1 = experiment: MTT cell proliferation assay, DLD-1; settings: DLD-1 cell line (colon)
Method: as §1, §2

HCC1143 = experiment: MTT cell proliferation assay, HCC1143; settings: HCC1143 cell line (mammary gland; breast)
Method: as §1, §2

HCT 116 = experiment: MTT cell proliferation assay, HCT 116; settings: HCT 116 cell line (colon)
Method: as §1, §2

HL-60 = experiment: MTT cell proliferation assay, HL-60; settings: HL-60 cell line (acute promyelocytic leukemia)
Method: as §1, §2

MCF7 = experiment: MTT cell proliferation assay, MCF7; settings: MCF7 cell line (mammary gland; breast)
Method: as §1, §2

MOLT-4 = experiment: MTT cell proliferation assay, MOLT-4
Method: as §1, §2

NCI H1395 = experiment: MTT cell proliferation assay, NCI H1395
Method: as §1, §2

NCI H2052 = experiment: MTT cell proliferation assay, NCI H2052; settings: NCI H2052 cell line (tumor stage 4 derived from pleural effusion)
Method: as §1, §2

OVCAR3 = experiment: MTT cell proliferation assay, OVCAR3; settings: OVCAR3 cell line (ovary)
Method: as §1, §2

PFSK-1 = experiment: MTT cell proliferation assay, PFSK-1; settings: PFSK-1 cell line (brain)
Method: as §1, §2

ZR-75-1 = experiment: MTT cell proliferation assay, ZR-75-1; settings: ZR-75-1 cell line (mammary gland; breast)
Method: as §1, §2

Compound “((2S,3S,4R,5R)-5-(2-amino-6-chloro-9H-purin-9-yl)-4-hydroxy-3-methyltetrahydrofuran-2,3-diyl)dimethanol (A), ((2S,3S,4R,5R)-5-(6-amino-2-chloro-9H-purin-9-yl)-4-hydroxy-3-methyltetrahydrofuran-2,3-diyl)dimethanol (B) [LCB-1094]” has an IC50 (1A6) greater than 500 µM, an IC50 (22Rv1) greater than 500 µM and an IC50 (786-O) greater than 500 µM. It also gave an IC50 (BxPC-3) greater than 500 µM, an IC50 (Colo 829) greater than 500 µM and an IC50 (DLD-1) greater than 500 µM. It also gave an IC50 (HCC1143) greater than 500 µM, an IC50 (HCT 116) greater than 500 µM and an IC50 (HL-60) greater than 500 µM. For the same compound, the IC50 (MCF7) was greater than 500 µM, the IC50 (MOLT-4; MOLT-4 cell line (acute lymphoblastic leukemia)) was greater than 500 µM and the IC50 (NCI H1395; NCI H1395 cell line (lung)) was greater than 500 µM. It also gave an IC50 (NCI H2052) greater than 500 µM, an IC50 (OVCAR3) greater than 500 µM and an IC50 (PFSK-1) greater than 500 µM. It also gave an IC50 (ZR-75-1) greater than 500 µM.

`CC1(CO)C(O)[C@H](n2cnc3c(=O)nc(N)[nH]c(=O)c32)O[C@@H]1CO` (stereo in doubt) [LCB-1097, 6-amino-1-((2R,3R,4S,5S)-3-hydroxy-4,5-bis(hydroxymethyl)-4-methyltetrahydrofuran-2-yl)imidazo[4,5-e][1,3]diazepine-4,8(1H,5H)-dione] gave an IC50 (1A6) greater than 500 µM, an IC50 (22Rv1; Homo sapiens) greater than 500 µM and an IC50 (786-O; Homo sapiens, 786-0) greater than 500 µM. The IC50 (BxPC-3; Homo sapiens) was greater than 500 µM, the IC50 (Colo 829; Homo sapiens) was greater than 500 µM and the IC50 (DLD-1; Homo sapiens) was greater than 500 µM. The IC50 (HCC1143; Homo sapiens) was greater than 500 µM, the IC50 (HCT 116; Homo sapiens) was greater than 500 µM and the IC50 (HL-60; Homo sapiens) was greater than 500 µM. It also gave an IC50 (MCF7; Homo sapiens) greater than 500 µM, an IC50 (MOLT-4; Homo sapiens, MOLT-4, MOLT-4 cell line (acute lymphoblastic leukemia)) greater than 500 µM and an IC50 (NCI H1395; Homo sapiens, NCI-H1395, NCI H1395 cell line (lung)) greater than 500 µM. The IC50 (NCI H2052; Homo sapiens) was greater than 500 µM, the IC50 (OVCAR3; Homo sapiens, OVCAR-3) was greater than 500 µM and the IC50 (PFSK-1; Homo sapiens) was greater than 500 µM. For the same compound, the IC50 (ZR-75-1; Homo sapiens) was 210 µM.
